# Results published in paper PMC9643456, “Matching amino acids membrane preference profile to improve activity of antimicrobial peptides” (Communications Biology, 2022).
# Square brackets hold non-standard residues; d marks the D form. Ends that are not written are not given here. Peptide text beside a SMILES is read from it.
# Key:
# [1] = Maximum soluble concentration / turbidity; assay type: physicochemical; conditions: for Maximum soluble concentration in PBS: lyophilized peptide reconstructed in PBS at 200-6.25 μM, visible turbidity checked every 12 h for 5 days, at least twice
# Experimental: Supplementary Methods Bacteria preparation, Antimicrobial peptides preparation, Minimal-inhibitory-concentration measurements, Hemolysis-activity measurements, Tryptophan fluorescence measurements, Isothermal titration calorimetry measurements, Bacteria membrane ion permeation measurements, Outer-inner membrane permeation, Field-emission scanning electron microscopy and Antimicrobial kinetics were performed as described in Materials and Methods. Liposome (LUV) preparation. Bacterial-membrane-mimic DMPC/DMPG unilamellar vesicles (LUV) and mammalian- membrane-mimic PC/cholesterol vesicles with 100-nm diameters were prepared by extrusion. LiposoFast Liposome Factory Basic unit with stabilizer (Avestin, Ottawa, Canada) was used to extrude liposomes 50 times through a polycarbonate membrane filter (pore diameter, 100 nm; filter diameter, 0.75 inches) (Avestin). […] rac-(1-glycerol)) (sodium salt) (DMPG) (Avanti, Alabama, USA); 1,2-Dimyristoyl-sn-glycero-3-phosphocholine (DMPC) (Avanti); and cholesterol (Sigma, Darmstadt, Germany) were used. For circular dichroism, isothermal titration calorimetry, tryptophan fluorescence, and dynamic light scattering experiments, liposomes were reconstructed and resuspendedwith phosphate-buffered saline (PBS; Welgene Inc, Gyeongsangbuk-do, Korea). For calcein-permeation tests, liposomes were reconstructed with calcein solutions (80 mM, 40 mM, 30 mM, 20 mM, and 10 mM) (Sigma, Darmstadt, Germany), purified with Sephadex-G50 columns (Pharmacia biotech, Stockholm, Sweden), and resuspended with PBS. Maximum-soluble -concentration measurements. […] turbidity with PBS. The lowest concentration of peptide without visible turbidity was determined to be the maximu m soluble concentration. Each experiment was performed at least twice. Circular dichroism (CD) spectrum. DMPC/PG -liposome, PC/cholesterol -liposome, and peptide stock solutions were diluted in PBS. For circular dichroism, PBS with neither liposome nor peptides was also prepared. Liposomes and peptides were mixed to […] Samples were transferred into type J/1 cuvettes (Jasco, Tokyo, Japan). Cuvettes were placed into the J -815 circular -dichroism spectrometer (Jasco, Tokyo, Japan). Measurement parameters were as follows: wavelength, 190 -260 nm; data pitch, 0.2 nm; bandwidth, 1.00 nm; […] Each experiment was performed in triplicate. Data below 197 nm was not analyzed because o f experimental difficulties in obtaining those spectra. Each experiment was performed at least twice. Artificial membrane calcein permeation measurements. Calcein fluorescence was used to measure peptide -induced liposome permeation. Calcein solutions (10 mM, 20 mM, or 60 mM) containing PC/PG liposomes and peptides were diluted in PBS ( ×1, ×2, ×3, ×8). […] Liposome solutions (180 μl) were transferred to wells of black, clear -bottomed 96 -well plates (Costar, New York, USA). Peptide […] Liposome-containing plates and peptide -containing plates were inserted into a Flexstation 3 Multi -Mode Microplate Reader (Molecular Devices, California, USA). Peptide solutions (20 μl) were transferred and mixed with liposome solution automatical ly after 30 sec. […] Measurement parameters were as follows: excitation, 490 nm; emission, 520 nm; temperature, 37 °C. […] was transferred and mixed with the liposome -peptide solu tions automatically after 300 sec to acquire fluorescence at maximum leakage. […] Fluorescence measured between 0 -300 sec after addition of 0 μg/ml peptide was considered the baseline. Each experiment was performed at least twice. Dynamic light scattering (DLS) measurements. Dynamic light scattering was used to measure peptide -induced liposome volume changes. PC/PG -liposome stock solutions and peptides were resuspended in PBS. Liposomes and peptides were mixed to […]
# DMPC:DMPG liposomes = test: Isothermal titration calorimetry, peptide-liposome interaction; assay type: binding; conditions: ITC, PBS, 37 °C
# Experimental: Liposomes were prepared using 1,2-dimyristoyl-sn-glycero-3-(phospho-rac-(1-glycerol)) (sodium salt) (DMPG) (Avanti, Alabama, USA); 1,2-dimyristoyl-sn-glycero-3-phosphocholine (DMPC) (Avanti); and cholesterol (Sigma, Darmstadt, Germany) were used. Bacterial membrane mimic DMPC/DMPG (7/3) unilamellar vesicles (LUVs), and mammalian membrane mimic DMPC/cholesterol (10/1) vesicles with 100-nm diameters were prepared using the freeze-thaw and extrusion method. Lipids were mixed and dissolved in methanol in round-bottomed flasks then evaporated and freeze-dried overnight, yielding a thin layer of lipid covering the glass wall. PBS was added to the lipid layer, after which the PBS-lipid layer was vortexed then frozen in liquid nitrogen and thawed in 50 °C water repeatedly until no visible layer remained. LiposoFast Liposome Factory Basic unit with stabilizer (Avestin, Ottawa, Canada) was then used to extrude the liposomes 50 times through a polycarbonate membrane filter (pore diameter, 100 nm; filter diameter, 0.75 inches) (Avestin). For circular dichroism, isothermal titration calorimetry, tryptophan fluorescence, and dynamic light scattering experiments, liposomes were reconstructed and resuspended in PBS (Welgene Inc, Gyeongsangbuk-do, Korea).
# PC/PG liposome stock solutions and peptide solutions were diluted in PBS and degassed for 30 min. Peptide solutions (2 ml, 40 μM) were then loaded into a VP-ITC MicroCalorimeter (MicroCal, Northampton, USA). Liposome samples (600 μl, 2000 μM) were injected into the VP-ITC using a syringe. Measurement parameters were as follows: cell temperature, 37 °C; total injections, 30; reference power, 10; initial delay, 300; stirring speed, 300; edit mode, 10.0/12.0/200/2. Liposome solution (10 μl) was injected into the peptide solution 30 times. Each experiment was performed in duplicate. The results were calculated using MicroCal analysis.
Molecule,Maximum soluble concentration in PBS [1] [µM],ΔS (DMPC:DMPG liposomes; run shown in Fig. 2a or run not numbered) [cal/mol deg],Turbidity in PBS ([1]; 10 mg/ml peptide in PBS),ΔS (DMPC:DMPG liposomes; 2nd run) [cal/moldeg],ΔS (DMPC:DMPG liposomes; 1st run) [cal/moldeg]
CC[C@@H](C)[C@@H](NC(=O)[C@@H](Cc1c[nH]c2ccccc12)NC(=O)[C@H](NC(=O)[C@@H](CC(C)C)NC(=O)[C@H](N)Cc1c[nH]c2ccccc12)C(C)C)C(=O)N[C@H](Cc1c[nH]c2ccccc12)C(=O)N[C@H](CCCNC(=N)N)C(=O)N[C@H](CCCNC(=N)N)C(=O)N[C@H](CCCNC(=N)N)C(N)=O [WCopW29] (H-[dW][dL][dV][dW][dI][dW][dR][dR][dR]-NH2),> 200,18.2,–,–,–
CC[C@@H](C)[C@@H](NC(=O)[C@@H](Cc1c[nH]c2ccccc12)NC(=O)[C@@H](CCCNC(=N)N)NC(=O)[C@@H](CCCNC(=N)N)NC(=O)[C@H](N)CCCNC(=N)N)C(=O)N[C@H](Cc1c[nH]c2ccccc12)C(=O)N[C@@H](C(=O)N[C@@H](C(=O)N[C@H](Cc1c[nH]c2ccccc12)C(=O)N[C@H](CCCCN)C(N)=O)[C@H](C)CC)C(C)C [WCopW43] (H-[dR][dR][dR][dW][dI][dW][dV][dI][dW][dK]-NH2),–,–,turbid,–,–
RLWWRWIVR-NH2 [HLWCopW29-4],> 200,–,–,-23.6,–
WLVWIWRRR-NH2 [LWCopW29],> 200,–,–,19.4,19.4
